The record followed here is US10239869B2, “Sulfonamide compounds as voltage-gated sodium channel modulators” (LUPIN LIMITED, priority 2015, dated 2019).

Read-outs that look alike come from different tables or passages of the source.

One data set has as its target Nav 1.7 (Homo sapiens (Human), UniProt Q15858). The data set is described as follows: Inhibition of sodium channels, Red Membrane Potential Dye FLIPR assay, veratridine depolarization. It is filed as cell-based. As to conditions: HEK-293 cells overexpressing the channel; for IC50: read-out: Nav1.7 IC50.
For another data set, the target named is Nav 1.5 (Homo sapiens (Human), UniProt Q14524). The data set is described as above. The conditions noted are these: HEK-293 cells overexpressing the channel; for inhibition at 10 µM: HEK-293 cells overexpressing Nav 1.5. It is filed as cell-based.
Sequence of Nav 1.5 (Q14524 whole entry): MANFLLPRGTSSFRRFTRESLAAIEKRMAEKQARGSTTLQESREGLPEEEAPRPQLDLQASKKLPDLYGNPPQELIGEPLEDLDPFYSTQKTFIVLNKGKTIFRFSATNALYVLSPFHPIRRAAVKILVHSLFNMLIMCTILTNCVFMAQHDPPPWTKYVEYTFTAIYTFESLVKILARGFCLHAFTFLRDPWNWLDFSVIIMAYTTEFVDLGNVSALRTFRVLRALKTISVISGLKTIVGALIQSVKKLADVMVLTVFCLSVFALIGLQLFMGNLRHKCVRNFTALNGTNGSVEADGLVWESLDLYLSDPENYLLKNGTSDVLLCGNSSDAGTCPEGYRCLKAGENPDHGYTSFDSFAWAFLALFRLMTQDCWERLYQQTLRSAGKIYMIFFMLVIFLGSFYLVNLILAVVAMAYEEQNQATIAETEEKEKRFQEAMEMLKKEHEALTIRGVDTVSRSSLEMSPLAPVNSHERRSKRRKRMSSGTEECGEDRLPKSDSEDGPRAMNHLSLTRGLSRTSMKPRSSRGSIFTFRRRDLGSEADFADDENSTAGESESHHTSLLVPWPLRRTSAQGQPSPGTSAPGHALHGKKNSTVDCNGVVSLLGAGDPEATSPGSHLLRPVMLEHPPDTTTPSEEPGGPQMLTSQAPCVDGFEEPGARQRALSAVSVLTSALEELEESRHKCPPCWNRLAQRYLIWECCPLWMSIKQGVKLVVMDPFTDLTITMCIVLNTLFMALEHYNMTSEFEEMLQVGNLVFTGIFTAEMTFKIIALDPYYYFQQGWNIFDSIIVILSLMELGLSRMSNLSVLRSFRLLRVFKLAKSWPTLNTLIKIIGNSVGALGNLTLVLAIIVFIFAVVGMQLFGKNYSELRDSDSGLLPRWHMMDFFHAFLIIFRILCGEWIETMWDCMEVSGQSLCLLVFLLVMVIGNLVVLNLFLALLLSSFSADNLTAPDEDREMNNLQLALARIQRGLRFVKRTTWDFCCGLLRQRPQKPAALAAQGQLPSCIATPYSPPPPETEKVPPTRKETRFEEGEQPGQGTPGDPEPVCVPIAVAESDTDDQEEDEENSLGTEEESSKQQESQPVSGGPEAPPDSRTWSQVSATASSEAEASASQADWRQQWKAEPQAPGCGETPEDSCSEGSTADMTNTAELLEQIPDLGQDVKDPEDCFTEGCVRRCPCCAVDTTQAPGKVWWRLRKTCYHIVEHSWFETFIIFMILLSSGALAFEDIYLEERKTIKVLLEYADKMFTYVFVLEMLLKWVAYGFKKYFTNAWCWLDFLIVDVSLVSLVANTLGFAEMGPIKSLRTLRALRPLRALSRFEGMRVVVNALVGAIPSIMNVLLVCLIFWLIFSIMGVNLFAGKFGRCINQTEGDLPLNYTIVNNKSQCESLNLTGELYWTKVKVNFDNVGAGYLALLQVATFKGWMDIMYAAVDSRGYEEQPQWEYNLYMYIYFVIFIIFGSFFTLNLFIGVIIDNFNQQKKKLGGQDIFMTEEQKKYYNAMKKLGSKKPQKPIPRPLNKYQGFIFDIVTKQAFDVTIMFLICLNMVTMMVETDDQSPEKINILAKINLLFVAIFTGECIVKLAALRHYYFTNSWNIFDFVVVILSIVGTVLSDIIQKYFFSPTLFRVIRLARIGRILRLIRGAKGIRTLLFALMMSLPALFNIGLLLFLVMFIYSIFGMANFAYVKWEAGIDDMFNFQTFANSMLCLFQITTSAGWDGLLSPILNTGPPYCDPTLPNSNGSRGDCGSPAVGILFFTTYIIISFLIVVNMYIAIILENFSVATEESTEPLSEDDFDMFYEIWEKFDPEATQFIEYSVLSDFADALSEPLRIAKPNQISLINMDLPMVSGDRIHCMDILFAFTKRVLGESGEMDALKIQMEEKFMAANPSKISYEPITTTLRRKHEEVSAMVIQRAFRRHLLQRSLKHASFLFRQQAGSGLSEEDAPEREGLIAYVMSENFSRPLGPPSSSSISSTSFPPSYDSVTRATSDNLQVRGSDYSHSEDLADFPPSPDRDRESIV
Setting [1] is: read-out: Nav1.5 IC50 (bound given in μM).

Sequence of Nav 1.7 (Q15858 whole entry): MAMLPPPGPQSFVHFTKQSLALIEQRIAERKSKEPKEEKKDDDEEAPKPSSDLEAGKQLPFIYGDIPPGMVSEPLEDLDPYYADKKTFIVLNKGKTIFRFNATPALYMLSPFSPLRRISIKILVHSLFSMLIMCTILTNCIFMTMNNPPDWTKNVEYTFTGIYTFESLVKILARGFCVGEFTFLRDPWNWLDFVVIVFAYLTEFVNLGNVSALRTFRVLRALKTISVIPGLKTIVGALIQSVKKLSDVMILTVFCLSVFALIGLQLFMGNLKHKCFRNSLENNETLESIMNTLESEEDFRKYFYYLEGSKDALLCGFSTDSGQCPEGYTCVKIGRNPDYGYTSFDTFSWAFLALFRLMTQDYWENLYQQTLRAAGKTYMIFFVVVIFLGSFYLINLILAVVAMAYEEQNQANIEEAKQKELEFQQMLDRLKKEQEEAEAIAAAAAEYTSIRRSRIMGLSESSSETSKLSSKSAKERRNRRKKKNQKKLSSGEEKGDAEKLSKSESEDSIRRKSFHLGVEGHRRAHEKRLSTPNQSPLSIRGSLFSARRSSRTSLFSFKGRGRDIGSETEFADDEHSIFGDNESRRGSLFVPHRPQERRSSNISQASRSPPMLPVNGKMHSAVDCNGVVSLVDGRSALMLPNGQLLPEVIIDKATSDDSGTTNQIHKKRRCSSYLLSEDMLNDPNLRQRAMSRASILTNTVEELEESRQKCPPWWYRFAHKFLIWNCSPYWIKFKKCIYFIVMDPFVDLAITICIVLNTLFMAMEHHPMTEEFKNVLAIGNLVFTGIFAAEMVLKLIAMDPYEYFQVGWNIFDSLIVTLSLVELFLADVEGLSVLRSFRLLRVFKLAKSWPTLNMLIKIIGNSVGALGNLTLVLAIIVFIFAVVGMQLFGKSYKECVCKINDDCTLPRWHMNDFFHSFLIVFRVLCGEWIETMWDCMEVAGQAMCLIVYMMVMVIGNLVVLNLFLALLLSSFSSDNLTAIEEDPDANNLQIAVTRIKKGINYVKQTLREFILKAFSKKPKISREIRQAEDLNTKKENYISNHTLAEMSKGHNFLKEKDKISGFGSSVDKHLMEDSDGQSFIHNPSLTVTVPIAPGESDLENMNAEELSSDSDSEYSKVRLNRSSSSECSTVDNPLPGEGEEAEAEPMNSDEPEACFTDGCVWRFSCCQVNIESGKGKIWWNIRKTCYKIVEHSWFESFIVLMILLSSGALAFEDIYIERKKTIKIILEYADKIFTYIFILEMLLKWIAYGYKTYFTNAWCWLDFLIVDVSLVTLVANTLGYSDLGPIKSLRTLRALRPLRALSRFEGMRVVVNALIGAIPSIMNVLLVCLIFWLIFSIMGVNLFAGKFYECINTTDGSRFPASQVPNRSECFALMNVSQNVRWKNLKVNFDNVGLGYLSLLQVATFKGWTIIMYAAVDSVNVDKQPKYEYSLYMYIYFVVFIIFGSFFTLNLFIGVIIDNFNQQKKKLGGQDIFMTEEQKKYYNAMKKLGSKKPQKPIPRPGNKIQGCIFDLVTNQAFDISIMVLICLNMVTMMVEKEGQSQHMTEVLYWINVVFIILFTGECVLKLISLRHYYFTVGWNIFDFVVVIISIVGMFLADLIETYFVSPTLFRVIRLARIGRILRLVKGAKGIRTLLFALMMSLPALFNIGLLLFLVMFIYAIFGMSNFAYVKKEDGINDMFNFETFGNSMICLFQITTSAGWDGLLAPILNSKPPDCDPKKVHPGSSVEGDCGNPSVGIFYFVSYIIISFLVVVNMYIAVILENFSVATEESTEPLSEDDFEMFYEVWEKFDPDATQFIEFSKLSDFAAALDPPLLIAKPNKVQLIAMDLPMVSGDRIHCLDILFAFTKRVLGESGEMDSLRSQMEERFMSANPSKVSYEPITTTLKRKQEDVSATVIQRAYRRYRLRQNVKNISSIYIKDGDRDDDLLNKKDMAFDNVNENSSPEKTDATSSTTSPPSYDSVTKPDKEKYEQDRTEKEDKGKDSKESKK

As for `COCCCc1cc(C(F)(F)F)ccc1[C@@H]1CCOc2cc(S(=O)(=O)Nc3ncccn3)ccc21` [Example 140, (S&R)-4-(2-(3-methoxypropyl)-4-(trifluoromethyl)phenyl)-N-(pyrimidin-2-yl)chroman-7-sulfonamide], the 50% inhibitory concentration (IC50) (usually the point on the concentration scale where inhibition reaches its midpoint) on Nav 1.7 was 1.74 µM; on Nav 1.5 (setting [1]) it was more than 10 µM.

On to `O=C(O)c1ccc(-c2cc(C(F)(F)F)ccc2[C@H]2CCOc3cc(S(=O)(=O)Nc4cccnn4)ccc32)cc1` (racemic) [Example-191, (R/S)-2′-(7-(N-(pyridazin-3-yl)sulfamoyl)chroman-4-yl)-5′-(trifluoromethyl)-[1,1′-biphenyl]-4-carboxylic acid], for which the IC50 was 0.671 µM at Nav 1.7 and more than 10 µM at Nav 1.5 (setting [1]).

On to `Cn1nccc1-c1cc(C(F)(F)F)ccc1[C@@H]1CCOc2cc(S(=O)(=O)Nc3ncccc3F)ccc21` [Example 17, (S&R)—N-(3-Fluoropyridin-2-yl)-4-(2-(1-methyl-1H-pyrazol-5-yl)-4-(trifluoromethyl)phenyl)chromane-7-sulfonamide], for which, on Nav 1.7, the “Nav1.7 inhibition @ 10 μM” value was determined as 96%. Further, at Nav 1.5 (setting [1]), the IC50 was more than 10 µM.

Regarding `CCOc1ccc(-c2cc(C(F)(F)F)ccc2[C@@H]2CCOc3cc(S(=O)(=O)Nc4ncc(F)cn4)ccc32)cn1` [Example 101, (S&R)-4-(2-(6-ethoxypyridin-3-yl)-4-(trifluoromethyl)phenyl)-N-(5-fluoropyrimidin-2-yl)chroman-7-sulfonamide], the IC50 at Nav 1.7 was found to be 2.59 µM. The “Nav1.5 % inhibition @ 10 μM” value on Nav 1.5 is listed as 51%.

`O=S(=O)(Nc1ccncn1)c1ccc2c(c1)OCC[C@@H]2c1ccc(C(F)(F)F)cc1-c1nccs1` (racemic) [Example 94, (R/S)—N-(pyrimidin-4-yl)-4-(2-(thiazol-2-yl)-4-(trifluoromethyl)phenyl)chroman-7-sulfonamide]: the IC50 on Nav 1.7 is 0.003 µM. In addition, at Nav 1.5, testing at 10 µM gave an inhibition of 51%.

As for `O=S(=O)(Nc1ccncn1)c1ccc2c(c1)OCC[C@@H]2c1ccc(C(F)(F)F)cc1Cl` (racemic) [Example 106, (S/R)-4-(2-Chloro-4-(trifluoromethyl)phenyl)-N-(pyrimidin-4-yl)chroman-7-sulfonamide], the results for the IC50 at Nav 1.7 and on Nav 1.5 (setting [1]) were 0.147 µM and more than 10 µM, respectively.

For `O=S(=O)(Nc1cccnn1)c1ccc2c(c1)OCC[C@@H]2c1ccc(C(F)(F)F)cc1O[C@H]1CCOC1` (racemic) [Example-184, (S/R)—N-(pyridazin-3-yl)-4-(2-(((S)-tetrahydrofuran-3-yl)oxy)-4-(trifluoromethyl)phenyl)chroman-7-sulfonamide], the 50% inhibitory concentration (IC50) on Nav 1.7 came to 0.17 µM. Also, at Nav 1.5, at 10 µM the inhibition was 67%.

Regarding `COCCOc1cc(C(F)(F)F)ccc1[C@H]1CCOc2cc(S(=O)(=O)Nc3cccnn3)ccc21` (racemic) [Example 128, (R/S)-4-(2-(2-methoxyethoxy)-4-(trifluoromethyl)phenyl)-N-(pyridazin-3-yl)chroman-7-sulfonamide], the IC50 at Nav 1.7 was found to be 0.145 µM. Moreover, on Nav 1.5, testing at 10 µM gave an inhibition of 55%.

In the case of `CC(C)Oc1ccc(-c2cc(C(F)(F)F)ccc2[C@@H]2CCOc3cc(S(=O)(=O)Nc4ncccn4)ccc32)cn1` [Example 97, (S&R)-4-(2-(6-isopropoxypyridin-3-yl)-4-(trifluoromethyl)phenyl)-N-(pyrimidin-2-yl)chroman-7-sulfonamide], the IC50 at Nav 1.7 worked out at 0.17 µM. Besides, the “Nav1.5 % inhibition @ 10 μM” value on Nav 1.5 stood at 71%.

Take `O=S(=O)(Nc1ncccn1)c1ccc2c(c1)OCC[C@@H]2c1ccc(C(F)(F)F)cc1CCC(F)F` (racemic) [Example-211, (R/S)-4-(2-(3,3-difluoropropyl)-4-(trifluoromethyl)phenyl)-N-(pyrimidin-2-yl)chroman-7-sulfonamide]: the results for the IC50 at Nav 1.7 and on Nav 1.5 (read-out: Nav1.5 IC50) were 0.007 µM and 0.777 µM, respectively.

On to `Cc1nc(-c2cc(C(F)(F)F)ccc2[C@H]2CCOc3cc(S(=O)(=O)Nc4cccc(F)n4)ccc32)ccc1F` (racemic) [Example-225, (R/S)-4-(2-(5-fluoro-6-methylpyridin-2-yl)-4-(trifluoromethyl)phenyl)-N-(6-fluoropyridin-2-yl)chroman-7-sulfonamide], for which the half-inhibitory concentration (IC50) was found to be 0.012 µM at Nav 1.7 and 1.5 µM on Nav 1.5 (read-out: Nav1.5 IC50).

Consider `Cc1nc(-c2cc(C(F)(F)F)ccc2[C@@H]2CCOc3cc(S(=O)(=O)Nc4cccnn4)ccc32)co1` [Example 79, (S&R)-4-(2-(2-methyloxazol-4-yl)-4-(trifluoromethyl)phenyl)-N-(pyridazin-3-yl)chroman-7-sulfonamide], for which the IC50 is 2.52 µM on Nav 1.7 and more than 10 µM on Nav 1.5 (setting [1]).

`O=S(=O)(Nc1cccnn1)c1ccc2c(c1)OCC[C@H]2c1ccc(C(F)(F)F)cc1OC1CCOCC1` [Example-174, (R&S)—N-(pyridazin-3-yl)-4-(2-((tetrahydro-2H-pyran-4-yl)oxy)-4-(trifluoromethyl)phenyl)chroman-7-sulfonamide]: the half-inhibitory concentration (IC50) on Nav 1.7 is 2.46 µM; on Nav 1.5 (setting [1]), more than 10 µM.

For the compound `O=S(=O)(Nc1cccc(F)n1)c1ccc2c(c1)OCC[C@@H]2c1ccc(C(F)(F)F)cc1OC1COC1` (racemic) [Example-219, (S/R)—N-(6-fluoropyridin-2-yl)-4-(2-(oxetan-3-yloxy)-4-(trifluoromethyl)phenyl)chromane-7-sulfonamide], the IC50 at Nav 1.7 is 0.034 µM. At Nav 1.5, the inhibition – broadly, the change of the read-out against control, counted positive when it falls – at 10 µM worked out at 40%.

With `O=C(O)c1ccc(-c2cc(C(F)(F)F)ccc2[C@H]2CCOc3cc(S(=O)(=O)Nc4cccc(F)n4)ccc32)cc1` (racemic) [Example-192, (R/S)-2′-(7-(N-(6-fluoropyridin-2-yl)sulfamoyl)chroman-4-yl)-5′-(trifluoromethyl)-[1,1′-biphenyl]-4-carboxylic acid], the figures for the half-maximal inhibitory concentration (IC50) on Nav 1.7 and at Nav 1.5 (setting [1]) were 0.008 µM and more than 10 µM, respectively.

Consider `O=C1OCCN1c1cc(C(F)(F)F)ccc1[C@H]1CCOc2cc(S(=O)(=O)Nc3cccnn3)ccc21` (racemic) [Example-209, (R/S)-4-(2-(2-oxooxazolidin-3-yl)-4-(trifluoromethyl)phenyl)-N-(pyridazin-3-yl)chroman-7-sulfonamide], for which, on Nav 1.7, the IC50 was 0.047 µM. Besides, testing at 10 µM at Nav 1.5 gave an inhibition of 28%.

On to `O=S(=O)(Nc1ccncn1)c1ccc2c(c1)OCC[C@@H]2c1ccc(C(F)(F)F)cc1O[C@H]1CCOC1` (racemic) [Example-183, (S/R)—N-(pyrimidin-4-yl)-4-(2-(((S)-tetrahydrofuran-3-yl)oxy)-4-(trifluoromethyl)phenyl)chroman-7-sulfonamide], for which the IC50 on Nav 1.7 is 0.011 µM; on Nav 1.5 (setting [1]) it was more than 10 µM.

In the case of `CC(C)Oc1ccc(-c2cc(C(F)(F)F)ccc2[C@H]2CCOc3cc(S(=O)(=O)Nc4ncc(F)cn4)ccc32)cn1` [Example 100, (S&R)—N-(5-fluoropyrimidin-2-yl)-4-(2-(6-isopropoxypyridin-3-yl)-4-(trifluoromethyl)phenyl)chroman-7-sulfonamide], the half-inhibitory concentration (IC50) at Nav 1.7 is 0.075 µM; on Nav 1.5 (setting [1]) it was more than 10 µM.

Take `O=S(=O)(Nc1cccnn1)c1ccc2c(c1)OCC[C@@H]2c1ccc(C(F)(F)F)cc1-n1ccnn1` [Example 54, (S&R)-4-(2-(1H-1,2,3-Triazol-1-yl)-4-(trifluoromethyl)phenyl)-N-(pyridazin-3-yl)chromane-7-sulfonamide]: the figures for the IC50 at Nav 1.7 and on Nav 1.5 (setting [1]) were 0.706 µM and more than 10 µM, respectively.

Consider `CS(=O)(=O)CCc1cc(C(F)(F)F)ccc1[C@@H]1CCOc2cc(S(=O)(=O)Nc3ncc(F)cn3)ccc21` [Example 85, (S&R)—N-(5-Fluoropyrimidin-2-yl)-4-(2-(2-(methylsulfonyl)ethyl)-4-(trifluoromethyl)phenyl)chroman-7-sulfonamide], for which the IC50 on Nav 1.7 was 2.72 µM; on Nav 1.5 (setting [1]), more than 10 µM.

As to `O=S(=O)(Nc1ncccn1)c1ccc2c(c1)OCCC2c1ccc(C(F)(F)F)cc1O[C@H]1CCOC1` (stereo partly drawn) [Example-179, (R&S)—N-(pyrimidin-2-yl)-4-(2-(((S)-tetrahydrofuran-3-yl)oxy)-4-(trifluoromethyl)phenyl)chroman-7-sulfonamide], on Nav 1.7, the IC50 was determined as 0.038 µM. In addition, at Nav 1.5, the “Nav1.5 % inhibition @ 10 μM” value was found to be 64%.

In the case of `COc1cc(C(F)(F)F)ccc1[C@@H]1CCOc2cc(S(=O)(=O)Nc3cccc(F)n3)ccc21` [Example-228, (S&R)—N-(6-fluoropyridin-2-yl)-4-(2-methoxy-4-(trifluoromethyl)phenyl)chroman-7-sulfonamide], on Nav 1.7, the “Nav1.7 inhibition @ 10 μM” value is given as 55%. In addition, at Nav 1.5 (setting [1]), the 50% inhibitory concentration (IC50) is more than 10 µM.

As for `O=S(=O)(Nc1cccnn1)c1ccc2c(c1)OCC[C@@H]2c1ccc(C(F)(F)F)cc1-c1ccc(F)cn1` [Example-200, (S&R)-4-(2-(5-fluoropyridin-2-yl)-4-(trifluoromethyl)phenyl)-N-(pyridazin-3-yl)chroman-7-sulfonamide], the IC50 on Nav 1.7 was 0.0005 µM; on Nav 1.5 (setting [1]), more than 10 µM.

`O=S(=O)(Nc1ncc(F)cn1)c1ccc2c(c1)OCC[C@H]2c1ccc(C(F)(F)F)cc1OC1CCOCC1` [Example-170, (R&S)—N-(5-fluoropyrimidin-2-yl)-4-(2-((tetrahydro-2H-pyran-4-yl)oxy)-4-(trifluoromethyl)phenyl)chroman-7-sulfonamide]: the concentration for half-maximal inhibition (IC50) on Nav 1.7 was 1.09 µM; on Nav 1.5 (setting [1]), more than 10 µM.

As to `CC(C)Oc1ccc([C@H]2CCOc3cc(S(=O)(=O)Nc4cccc(F)n4)ccc32)c(-c2ccnn2C)c1` [Example 34, (S&R)—N-(6-fluoropyridin-2-yl)-4-(4-isopropoxy-2-(1-methyl-1H-pyrazol-5-yl)phenyl)chroman-7-sulfonamide], the IC50 at Nav 1.7 is 0.057 µM; at Nav 1.5 (setting [1]), more than 10 µM.

In the case of `Cc1nc(-c2cc(C(F)(F)F)ccc2[C@H]2CCOc3cc(S(=O)(=O)Nc4cccc(F)n4)ccc32)cs1` [Example 62], the concentration for half-maximal inhibition (IC50) on Nav 1.7 is 0.005 µM. In addition, on Nav 1.5, the “Nav1.5 % inhibition @ 10 μM” value was found to be 42%.

`O=S(=O)(Nc1ncccn1)c1ccc2c(c1)OCC[C@@H]2c1ccc(C(F)(F)F)cc1CCCF` (racemic) [Example 158, (R/S)-4-(2-(3-fluoropropyl)-4-(trifluoromethyl)phenyl)-N-(pyrimidin-2-yl)chroman-7-sulfonamide]: the IC50 on Nav 1.7 was found to be 0.13 µM; on Nav 1.5 (read-out: Nav1.5 IC50) it was 0.505 µM.
